# Reference: patent publication US8022036B2, “Use of thymosin alpha 1 for the treatment of immunological diseases” (Sigma-Tau Industrie Farmaceutiche Riunite S.p.A., priority 2006, dated 2011)
# No end group written: not given here.
# Test system: CD4+ T cell clones
# Experiment: Aspergillus-specific or alloreactive human T cell clones responding to DCs
# Assay type: cell-based
# Settings: healthy donors or transplanted patients
# Experimental: Aspergillus-specific human CD4+ T cell clones were generated from peripheral blood CD4+CD45RA+ T cells added at limiting dilution concentrations to irradiated (20 Gy) feeder autologous peripheral blood cells and stimulated with conidia-pulsed DCs or allogeneic DCs (Blood. 2005; 106:4397-4406). Growing clones were assessed for specificity against fungus-pulsed DCs, allogeneic DCs, autologous irradiated cells (as a negative control) and 0.5% phytohemoagglutinin (as a positive control) by H^3-thymidine (Amersham Biosciences, Little Chalfont, UK) labeling or cytokine content in supernatants 2 days later (Blood. 2005; 106:4397-4406).
# (E) Frequency of Aspergillus-specific or alloreactive T cell clones responding to the different types of fungus-pulsed DCs or unpulsed DCs, respectively, from healthy donors or transplanted patients. Growing clones were assessed for specificity after 2 days of stimulation with DCs. (*) p<0.05, GM-DCs versus peripheral blood cells (−). (**) P<0.05, HSCT-DCs versus all other DCs. nd, not done.
substance,measurement,value
"Thymosin alpha 1: naturally occurring thymic peptide; supplied as purified, endotoxin-free sterile lyophilized acetylated polypeptide from SciClone Pharmaceuticals (Ac-SDAAVDTSSEITTKDLKEKKEVVEEAEN; UniProt P06454 2-29, looked up)",ability of DCs to activate fungus- or alloantigen-specific T cell reactivity,modified neither the antigen-specific T cell responses induced by DCs nor the allostimulatory capacity
